Assays:
ITK = ITK (Homo sapiens (Human), UniProt Q08881); test: ITK kinase test (33P-ATP filter binding); format: biochemical
Protocol: (§1) Experimental example 1: EGFR, ITK, TEC, and BTK kinase'test.
(§2) Buffer condition: 20 mM HEPES(pH 7.5), 10 mM MgCl2, 1 mM EGTA, 0.02% Brij35, 0.02 mg/mL BSA, 0.1 mm Na3VO4, 2 mm; DTT, 1% DMSO.
(§3) 2.1. An indicator substrate was prepared in a reaction buffer prepared newly.
(§4) 2.2. A cofactor required was transferred to the substrate solution above.
(§5) 2.3. A kinase indicated was injected into the substrate solution and mixed gently.
(§6) 2.4. An acoustic technology was used to convey a compound in DMSO to a kinase reaction mixture (Echo550).
(§7) 2.5. ^33P-ATP (specific activity 0.01 μci/μL, finally) was fed into the reaction mixture to initiate a reaction. (ATP final concentrations were 2 μM, 5 μM, and 5 μM respectively).
(§8) 2.6. The kinase reaction was incubated at room temperature for 120 min.
(§9) 2.7. The reaction was recorded on P81 ion exchange paper (Whatman #3698-915).
(§10) 2.8. 0.75% phosphoric acid was widely used to clean a filter.
(§11) 2.9. The remaining radioactive phosphorylation substrate on filter paper was measured.
(§12) 3. Data analysis: the kinase activity data was expressed as a percentage of the remaining kinase activity in the test sample compared to the carrier (dimethyl sulfoxide) reaction. The IC50 value and curve fitting were obtained by using Prism4 software (GraphPad).

TEC = TEC (Homo sapiens (Human), UniProt P42680); test: TEC kinase test (33P-ATP filter binding); format: biochemical
Sequence of TEC (P42680 whole entry): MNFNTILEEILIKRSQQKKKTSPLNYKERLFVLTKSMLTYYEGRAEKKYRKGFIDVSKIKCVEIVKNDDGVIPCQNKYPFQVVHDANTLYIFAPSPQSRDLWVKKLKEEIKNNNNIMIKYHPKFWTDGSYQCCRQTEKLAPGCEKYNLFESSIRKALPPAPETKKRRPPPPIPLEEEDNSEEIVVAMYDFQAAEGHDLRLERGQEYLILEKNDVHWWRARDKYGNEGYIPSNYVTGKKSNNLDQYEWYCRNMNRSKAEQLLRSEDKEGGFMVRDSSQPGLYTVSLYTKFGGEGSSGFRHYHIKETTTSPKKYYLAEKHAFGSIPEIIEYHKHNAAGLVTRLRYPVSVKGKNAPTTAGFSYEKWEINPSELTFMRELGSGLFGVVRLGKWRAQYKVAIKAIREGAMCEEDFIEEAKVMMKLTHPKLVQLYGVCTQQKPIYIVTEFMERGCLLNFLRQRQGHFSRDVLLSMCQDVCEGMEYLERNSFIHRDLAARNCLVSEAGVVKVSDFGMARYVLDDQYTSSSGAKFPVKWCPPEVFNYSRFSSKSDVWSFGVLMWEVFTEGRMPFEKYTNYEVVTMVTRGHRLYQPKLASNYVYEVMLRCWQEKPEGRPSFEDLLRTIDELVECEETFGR
Protocol: as §1, §2, §3, §4, §5, §6, §7, §8, §9, §10, §11, §12

EGFR = EGFR (Homo sapiens (Human), UniProt P00533); test: EGFR kinase test (33P-ATP filter binding); format: biochemical
Sequence of EGFR (P00533 25-1210): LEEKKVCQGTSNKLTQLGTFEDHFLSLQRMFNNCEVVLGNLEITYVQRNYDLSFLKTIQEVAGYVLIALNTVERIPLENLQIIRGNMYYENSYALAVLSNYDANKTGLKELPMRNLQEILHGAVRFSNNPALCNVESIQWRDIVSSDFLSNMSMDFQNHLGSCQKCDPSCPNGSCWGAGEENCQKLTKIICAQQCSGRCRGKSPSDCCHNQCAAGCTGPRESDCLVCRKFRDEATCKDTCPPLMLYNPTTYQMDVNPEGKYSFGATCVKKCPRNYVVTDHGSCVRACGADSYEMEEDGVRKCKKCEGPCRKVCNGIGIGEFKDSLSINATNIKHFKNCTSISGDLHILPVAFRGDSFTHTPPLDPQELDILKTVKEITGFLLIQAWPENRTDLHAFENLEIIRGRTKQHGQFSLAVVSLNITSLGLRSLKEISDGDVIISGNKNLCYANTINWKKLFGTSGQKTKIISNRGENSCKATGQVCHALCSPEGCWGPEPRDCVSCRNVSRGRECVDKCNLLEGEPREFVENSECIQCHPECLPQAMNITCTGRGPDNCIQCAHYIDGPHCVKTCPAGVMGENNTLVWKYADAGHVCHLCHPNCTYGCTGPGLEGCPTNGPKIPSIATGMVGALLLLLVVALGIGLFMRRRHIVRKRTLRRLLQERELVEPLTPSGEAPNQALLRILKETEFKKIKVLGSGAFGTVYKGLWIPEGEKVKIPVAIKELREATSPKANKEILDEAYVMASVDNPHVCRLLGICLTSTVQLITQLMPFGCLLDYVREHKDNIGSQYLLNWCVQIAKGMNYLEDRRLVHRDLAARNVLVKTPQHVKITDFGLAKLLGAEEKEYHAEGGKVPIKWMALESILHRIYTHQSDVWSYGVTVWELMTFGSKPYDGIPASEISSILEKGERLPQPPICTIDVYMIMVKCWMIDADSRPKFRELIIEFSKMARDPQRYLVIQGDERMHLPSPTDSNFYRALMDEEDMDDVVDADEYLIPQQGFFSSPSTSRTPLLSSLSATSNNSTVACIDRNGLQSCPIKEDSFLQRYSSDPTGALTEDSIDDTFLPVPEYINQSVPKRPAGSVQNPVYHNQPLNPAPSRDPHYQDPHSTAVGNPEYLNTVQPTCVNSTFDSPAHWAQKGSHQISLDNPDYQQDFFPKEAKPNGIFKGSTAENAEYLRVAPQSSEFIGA
Protocol: as §1, §2, §3, §4, §5, §6, §7, §8, §9, §10, §11, §12

BTK = BTK (Homo sapiens (Human), UniProt Q06187); test: BTK kinase test (33P-ATP filter binding); format: biochemical; settings: 120 min at room temperature
Sequence of BTK (Q06187 whole entry): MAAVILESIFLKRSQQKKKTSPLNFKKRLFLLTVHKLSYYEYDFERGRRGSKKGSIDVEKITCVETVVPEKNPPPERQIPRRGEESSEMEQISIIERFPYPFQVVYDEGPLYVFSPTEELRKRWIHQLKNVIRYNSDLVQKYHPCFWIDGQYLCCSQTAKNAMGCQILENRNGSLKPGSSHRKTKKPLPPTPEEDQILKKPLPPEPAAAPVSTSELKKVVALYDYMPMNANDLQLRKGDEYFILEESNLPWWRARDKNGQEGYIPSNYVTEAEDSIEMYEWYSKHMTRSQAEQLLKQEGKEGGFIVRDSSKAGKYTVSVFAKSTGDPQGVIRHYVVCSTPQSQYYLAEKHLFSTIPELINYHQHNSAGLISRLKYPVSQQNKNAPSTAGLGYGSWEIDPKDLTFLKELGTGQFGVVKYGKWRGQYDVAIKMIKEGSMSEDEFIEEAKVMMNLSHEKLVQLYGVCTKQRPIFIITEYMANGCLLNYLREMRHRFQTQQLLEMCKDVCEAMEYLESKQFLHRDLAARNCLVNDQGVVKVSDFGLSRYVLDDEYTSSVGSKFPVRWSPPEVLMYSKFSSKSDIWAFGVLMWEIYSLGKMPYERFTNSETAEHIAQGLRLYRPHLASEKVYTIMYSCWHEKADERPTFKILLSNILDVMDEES
Protocol: as §1, §2, §3, §4, §5, §6, §7, §8, §9, §10, §11, §12

[1] = Hygroscopicity by dynamic vapor sorption (DVS); format: physicochemical; settings: 80% RH/25° C.
Protocol: Instrument model: SMS DVS Intrinsic Plus dynamic steam adsorption instrument.
Test condition: a sample (10-20 mg) is taken and placed in a DVS sample tray for testing.
Detailed DVS parameters are as follows:
Balance: dm/dt=0.002%/min (minimum: 10 min, and maximum: 180 min).
Drying: it is dried at 0% relative humidity (RH) until dm/dt≤0.002%/min or maximum 180 min.
RH (%) test step range: 0%-95%-0%.
SMS DVS Intrinsic Plus dynamic steam adsorption instrument.
A sample (10-20 mg) was taken and placed in a DVS sample tray for testing.

[2] = Solid stability test of crystal form (XRPD); format: physicochemical; settings: influencing factors and accelerated conditions
Protocol: According to the “Guiding Principles for Stability Test of Raw Materials and Preparations” (General Rule 9001 of Part Four of the Chinese Pharmacopoeia 2015 Edition), the stability of the crystal form A of the compound in Formula (I) was investigated under influencing factors ((high temperature (60° C., open), high humidity (room temperature/relative humidity 92.5%, open), strong light (visible light intensity of 5000 lux and ultraviolet intensity of […], open), and accelerated conditions (40° C./75% RH, open) and (60° C./75% RH, open)).
About 20 mg of the crystal form A of the compound in Formula (I) was weighed respectively, and it was placed at the bottom of a glass sample bottle, and spread into a thin layer. Its sample was completely exposed for sampling. The samples placed under different conditions were sampled for testing (XRPD) on day 5, day 10, 1 month, 2 months, and 3 months.

[3] = 33P-ATP, 120 min at room temperature

Sequence of ITK (Q08881 whole entry): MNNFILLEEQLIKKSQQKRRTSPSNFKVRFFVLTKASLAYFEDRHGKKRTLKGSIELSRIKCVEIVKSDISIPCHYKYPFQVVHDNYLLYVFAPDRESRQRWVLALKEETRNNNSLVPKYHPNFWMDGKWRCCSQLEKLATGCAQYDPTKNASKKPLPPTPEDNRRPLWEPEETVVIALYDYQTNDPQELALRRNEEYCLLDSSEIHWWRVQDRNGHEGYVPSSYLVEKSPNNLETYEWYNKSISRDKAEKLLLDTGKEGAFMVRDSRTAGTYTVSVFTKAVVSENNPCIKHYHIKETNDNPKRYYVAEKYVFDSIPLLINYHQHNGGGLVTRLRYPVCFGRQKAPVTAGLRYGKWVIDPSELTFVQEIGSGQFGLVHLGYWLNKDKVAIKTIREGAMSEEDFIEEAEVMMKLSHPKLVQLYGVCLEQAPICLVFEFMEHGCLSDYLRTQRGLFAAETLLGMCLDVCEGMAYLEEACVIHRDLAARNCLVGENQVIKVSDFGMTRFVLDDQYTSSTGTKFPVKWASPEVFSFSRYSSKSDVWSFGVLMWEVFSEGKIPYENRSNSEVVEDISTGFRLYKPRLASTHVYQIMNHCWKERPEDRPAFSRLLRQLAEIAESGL

| Hygroscopic classification [1] | ΔW, hygroscopic weight increase [1] | Solid stability, conclusion in words [2] | SMILES | IC50 (ITK; [3]) | EGFR, ITK, TEC, and BTK activity ratio: ITK to BTK (ITK; IC50 ITK / IC50 BTK) | IC50 (TEC; [3]) | EGFR, ITK, TEC, and BTK activity ratio: TEC to BTK (TEC; IC50 TEC / IC50 BTK) | IC50 (EGFR; [3]) | EGFR, ITK, TEC, and BTK activity ratio: EGFR to BTK (EGFR; IC50 EGFR / IC50 BTK) | IC50 (BTK) |
| --- | --- | --- | --- | --- | --- | --- | --- | --- | --- | --- |
|  |  |  | C=CC(=O)N1CCC[C@H](c2nn(-c3ccc(Oc4cccc(F)c4F)cc3)c3cncc(F)c23)C1 (single isomer, unassigned) [Compound 1B] | 5430 nM | 2513 times, | 74.8 nM | 34 times | 829 nM | 383 times, | 2.16 nM |
| slight hygroscopicity | 0.23% | good stability | C=CC(=O)N1CCC[C@@H](c2nn(-c3ccc(Oc4cccc(F)c4F)cc3)c3cncc(F)c23)C1 |  |  |  |  |  |  |  |

— patent US20240182466A1, “A Crystal Form of a Fluorine-substituted Pyridopyrazole Compound and a Preparation Method Thereof” (JUMBO DRUG BANK CO., LTD, priority 2021, published 2024)
